Measured values taken from the Bradley open melting point set (2014).
Structures can show the parent of a compound that is named as a salt.

Row | SMILES | melting point [°C]
1 | Nc1ccc(C2CCCCC2)cc1 [4-cyclohexylaniline] | 54
2 | Oc1ccccc1Br [2-bromophenol] | 5
3 | COc1cc(CCC(C)=O)ccc1O [4-(4-hydroxy-3-methoxyphenyl)-2-butanone] | 41
4 | CC(C)(C#N)c1cc(Cn2cncn2)cc(C(C)(C)C#N)c1 [Anastrozole] | 130
5 | O=C(O)/C=C/c1ccc(F)c(F)c1 [3,4-difluorocinnamic acid] | 195
6 | Cc1ccc(O)c(/N=N/c2c(O)cc(S(=O)(=O)O)c3ccccc23)c1 | 300
7 | COc1cccc(-c2nnn[nH]2)c1 [5-(3-methoxyphenyl)-1h-tetrazole] | 157
8 | Cn1c(=O)c2nc[nH]c2n(C)c1=O [Theophylline] | 274
9 | CN(C)c1ccc(/C=C/C=O)cc1 [4-dimethylamino cinnamaldehyde] | 136
10 | CC(=O)C1C(=O)C=C(C)OC1=O (configuration not stated) [dehydroacetic acid] | 111
11 | Cc1ccc(B(O)O)c(Cl)c1 [2-chloro-4-methylbenzeneboronic acid] | 200
12 | O=C(CCCN1CCC(n2c(=O)[nH]c3ccccc32)CC1)c1ccc(F)cc1 [benperidol] | 170
13 | O=C(Cl)c1c(Cl)cccc1Cl [2,6-dichlorobenzoyl chloride] | 17
14 | CC12CCC(=O)CC1CCC1C2CCC2(C)C(OC=O)CCC12 (configuration not stated) [3-oxoandrostan-17-yl formate] | 125
15 | C/C=C/c1ccccc1 [trans-1-phenyl-1-propene] | -29
16 | ClCc1ccc(Cl)cc1Cl [2,4-dichlorobenzyl chloride] | -3
17 | CSSC [dimethyl disulfide] | -85
18 | CCCN(CC1CC1)c1c([N+](=O)[O-])cc(C(F)(F)F)cc1[N+](=O)[O-] [profluralin] | 32.5
19 | Cc1ncc(CO)c(CO)c1O [Pyridoxine] | 160

Row | SMILES | melting point [°C]
20 | Cc1cccc(I)c1 [3-iodotoluene] | -27
21 | CCOP(=S)(OCC)Oc1nc(Cl)c(Cl)cc1Cl [O,O-Diethyl O-(3,5,6-trichloropyridin-2-yl) phosphorothioate] | 42.5
22 | COc1cc(O)cc(OC)c1OC [3,4,5-trimethoxyphenol] | 146
23 | O=[N+]([O-])c1cc[n+]([O-])c2ccccc12 [4-Nitroquinoline 1-oxide] | 154
24 | Nc1ccc(Cl)cc1 [4-Chloroaniline] | 72.5
25 | C[Si]1(C)O[Si](C)(C)O[Si](C)(C)O[Si](C)(C)O[Si](C)(C)O1 | -44
26 | CCCC(C)(COC(N)=O)COC(N)=O [Sowell] | 104
27 | CCCCCCCCCCCCS(=O)(=O)Cl [1-dodecanesulfonyl chloride] | 41
28 | OCCNCCO [diethanolamine] | 29
29 | O=[N+]([O-])c1ccccc1 [nitrobenzene] | 6
30 | Cc1[nH]n(-c2ccccc2)c(=O)c1C(=O)c1ccccc1 [4-benzoyl-3-methyl-1-phenyl-5-pyrazolinone] | 91
31 | BrCCCCBr [1,4-dibromobutane] | -17
32 | O=c1[nH]c2ccccc2n1CCCN1CCC(n2c(=O)[nH]c3cc(Cl)ccc32)CC1 [Domperidone] | 242
33 | NNC(=O)c1ccc(C(F)(F)F)cc1 [4-(trifluoromethyl)benzhydrazide] | 119
34 | O=C1OC(=O)C23Cc4ccccc4CC12Cc1cc2c(cc1C3)CC2 (configuration not stated) | 250
35 | C=CCn1c(=O)n(CC=C)c(=O)n(CC=C)c1=O [1,3,5-Triallyl-1,3,5-triazinane-2,4,6-trione] | 24
36 | COC(=O)CCCCC(=O)OC [dimethyl adipate] | 8
37 | CCCC(N)=O [butyramide] | 115
38 | COc1cccc(C=O)c1O [2-hydroxy-3-methoxybenzaldehyde] | 41

Row | SMILES | melting point [°C]
39 | c1ccc2c(P(c3cccc4ccccc34)c3cccc4ccccc34)cccc2c1 [tri(1-naphthyl)phosphine] | 267
40 | O=Cc1ccccc1O [salicylaldehyde] | -7
41 | O=S(=O)(Cl)c1ccccc1 [Benzenesulfonyl chloride] | 15
42 | CSc1ccc(B(O)O)cc1 [4-(methylthio)benzeneboronic acid] | 210
43 | O=[N+]([O-])c1ncccc1Br [3-bromo-2-nitropyridine] | 104
44 | COc1ccc(Cl)cc1B(O)O [5-chloro-2-methoxybenzeneboronic acid] | 138
45 | O=C1CCCN1 [2-pyrrolidinone] | 24
46 | COc1ccc2oc(-c3cc(OC)c(OC)cc3OC)c(O)c(=O)c2c1 [3-hydroxy-2',4',5',6-tetramethoxyflavone] | 202
47 | N#Cc1ccccc1N1CCCCC1 [2-(1-piperidinyl)benzonitrile] | 43
48 | N#CCc1ccc(B(O)O)cc1 [4-(cyanomethyl)benzeneboronic acid] | 198
49 | COc1cccc(C(=O)O)c1O [2-hydroxy-3-methoxybenzoic acid] | 152
50 | O=C1C(c2ccccn2)=Nc2ccccc21 [2-pyridin-2-yl-3H-indol-3-one] | 186
51 | CS(C)=O [dimethyl sulfoxide] | 18
52 | CCCCCNCCCCC [N-Pentylpentan-1-amine] | -44
53 | CC12CCC(C(=CC=C3C(=O)C4(C)CCC3C4(C)C)C1=O)C2(C)C | 240
54 | CC(=O)OCCC(C)C [isopentyl acetate] | -78
55 | CC(C)(C)c1ccc(C(C)(C)C)cc1 [p-di-tert-butylbenzene] | 74
56 | O=C1CCCCC1c1ccccc1 (configuration not stated) [2-phenylcyclohexanone] | 58

More lines, now with the values ahead:

Row | melting point [°C] | SMILES
57 | 3 | CC(=O)OCC(COC(C)=O)OC(C)=O [Propane-1,2,3-triyl triacetate]
58 | 156 | O=C(O)CSCC(=O)NC1CCSC1=O (configuration not stated) [erdosteine]
59 | 48 | COC(=O)c1ccc(OC)cc1O [methyl 2-hydroxy-4-methoxybenzoate]
60 | 315 | O=C1OC2(c3ccc(O)cc3Oc3cc(O)ccc32)c2ccccc21 [Fluorescein]
61 | 94 | OC[C@@H](O)[C@H](O)[C@@H](O)CO [xylitol]
62 | 190 | NS(=O)(=O)c1c(F)cccc1F [2,6-difluorobenzenesulfonamide]
63 | -113 | CC/C=C/CC [trans-3-hexene]
64 | 206 | CC(=O)c1cc(O)ccc1O [2',5'-dihydroxyacetophenone]
65 | 40 | O=C1CCCCCCC1 [cyclooctanone]
66 | 68 | Cc1ccc(O)c(O)c1 [4-methylcatechol]
67 | 191 | CC[C@H]1OC(=O)[C@H](C)[C@@H](O[C@H]2C[C@@](C)(OC)[C@@H](O)[C@H](C)O2)[C@H](C)[C@@H](O[C@@H]2O[C@H](C)C[C@H](N(C)C)[C@H]2O)[C@](C)(O)C[C@@H](C)C(=O)[C@H](C)[C@@H](O)[C@]1(C)O [Erythromycin]
68 | -98 | COC(C)=O [methyl acetate]
69 | -5 | CC(C(=O)O)c1ccccc1 (configuration not stated) [2-phenylpropionic acid]
70 | 225 | CN1C(CCl)Nc2cc(Cl)c(S(N)(=O)=O)cc2S1(=O)=O (configuration not stated) [methyclothiazide]
71 | 46 | CCCCCCCCCCCCCCCO [1-pentadecanol]
72 | 290 | O=C(O)CCc1ccc(C(=O)O)cc1 [3-(4-carboxyphenyl)propionic acid]
73 | 42 | O[C@H](CS)[C@H](O)CS (racemic) [1,4-dithio-dl-threitol]
74 | 118 | c1cnc2c(c1)ccc1cccnc12 [1,10-phenanthroline, anhydrous]
75 | 115 | O=C(O)c1ccccc1-c1ccccc1 [o-phenylbenzoic_acid]
76 | 127 | O=C(O)Cc1cc(O)ccc1O [2,5-dihydroxyphenylacetic_acid]
77 | 54 | CCOC(=O)C(C#N)=C(SC)SC [Ethyl 2-cyano-3,3-bis(methylsulfanyl)acrylate]

Row | melting point [°C] | SMILES
78 | 170 | CC(=O)Nc1ccc(O)cc1 [4-acetamidophenol]
79 | -10 | CC(C)C(C)(C)O [2,3-dimethyl-2-butanol]
80 | 188 | CC(C)(C)c1cc(C=O)cc(C(C)(C)C)c1O [3,5-di-tert-butyl-4-hydroxybenzaldehyde]
81 | 136 | CC(O[S+]([O-])C(C)(C)C)C(O)(c1ccccc1)c1ccccc1 (configuration not stated)
82 | 78 | O=Cc1ccc(I)cc1 [p-iodobenzaldehyde]
83 | 145 | COc1cc(C(=O)c2ccc(-c3ccccc3)cc2)c([N+](=O)[O-])cc1OC [biphenyl-4-yl(4,5-dimethoxy-2-nitrophenyl)methanone]
84 | 18 | CS(C)=O [dimethyl_sulfoxide]
85 | 198 | CC(C)C1=C(O)C(=O)C2=C(C(=O)CC3C(C)(C)CCCC23C)C1=O (configuration not stated) [7-Oxoroyleanone]
86 | 296 | O=C1NC(=O)C(c2ccccc2)(c2ccccc2)N1 [5,5-diphenylhydantoin]
87 | 83 | c1csc(C2CNCCN2)c1 (configuration not stated) [2-(2-thienyl)piperazine]
88 | 54 | CCOC(=O)/C=C/c1cccc(/C=C/C(=O)OCC)c1 [diethyl (2E,2'E)-3,3'-benzene-1,3-diylbisprop-2-enoate]
89 | 154 | Cc1c(C(=O)OCC(N)=O)cnn1-c1ccccc1 [OSM-S-57]
90 | 31 | O=[N+]([O-])c1ccco1 [2-Nitrofuran]
91 | 69 | Cc1ccc(S(=O)(=O)Cl)cc1 [p-toluenesulfonyl chloride]
92 | 151 | O[C@H]1O[C@H](COCc2ccccc2)[C@@H](OCc2ccccc2)[C@H](OCc2ccccc2)[C@H]1OCc1ccccc1 [2,3,4,6-tetra-o-benzyl-alpha-D-glucopyranose]
93 | 141 | O=C1C=C(NCCNc2ccccc2)C(=O)c2ccccc21 [2-{[2-(phenylamino)ethyl]amino}naphthalene-1,4-dione]
94 | 130 | O=C(O)CCc1ccc(O)cc1 [Desaminotyrosine]
95 | -148 | CCS [ethanethiol]
96 | 187 | NC(=O)C12CC3CC(CC(C3)C1)C2 [adamantane-1-carboxamide]
97 | 24 | CCCCCCCCCCCC(C)=O [Tridecan-2-one]
